Key:
Ba/F3_KRAS^G12D cells = Ba/F3_KRAS^G12D cells (Homo sapiens, UniProt P01116, G12D, cells depend on it); assay: Ba/F3 KRAS^G12D cell proliferation assay (cell-titer Glo); format: cell-based; conditions: cell growth inhibition, treated with the compounds for 3 days, read-out: BaF3_KRAS^G12D IC50
[1] = biological target: recombinant human KRAS^G12D protein (Homo sapiens, UniProt P01116, G12D); assay: Temperature-dependent Fluorescence (TdF) KRAS^G12D protein binding assay; conditions: 6 μM KRAS^G12D Protein, 10 μM compound, Sypro Orange; Kd calculated from fluorescent shift
Experimental: The TdF assay was conducted in the 96-well-based real-time fluorescence plate reader (ABI 7500 or Roche LightCycler 480). Fluorescent dye Sypro Orange (Sigma) was used to monitor the protein folding-unfolding transition. Protein-compound binding was gauged by the shift in the unfolding transition temperature (ΔTm) acquired with and without compound. […] The sample plate was heated from 30° C. to 95° C. with a thermal ramping rate of […], taking a fluorescence reading every 0.4° C. using a CY3 channel matching the excitation and emission wavelengths of Sypro Orange (λ ex 470 nm; λ em 570 nm). Binding affinity (Kd value) was calculated based on the degree of fluorescent shift of the protein with and without compound.

Ba/F3_KRAS^G12D cells, sequence (P01116 whole entry G12D): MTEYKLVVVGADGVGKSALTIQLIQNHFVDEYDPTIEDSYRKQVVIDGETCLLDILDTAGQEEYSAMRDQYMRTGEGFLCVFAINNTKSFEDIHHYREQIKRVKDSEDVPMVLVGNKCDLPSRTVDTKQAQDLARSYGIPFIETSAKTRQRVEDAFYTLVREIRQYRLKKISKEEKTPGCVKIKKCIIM
recombinant human KRAS^G12D protein, sequence (P01116 1-188 isoform P01116-2 G12D): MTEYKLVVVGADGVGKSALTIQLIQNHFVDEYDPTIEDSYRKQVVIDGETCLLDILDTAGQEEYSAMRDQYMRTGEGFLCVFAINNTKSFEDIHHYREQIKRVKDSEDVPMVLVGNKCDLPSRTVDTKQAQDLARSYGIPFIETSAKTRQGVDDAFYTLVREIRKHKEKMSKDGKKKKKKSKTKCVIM

| Compound | GI50 (Ba/F3_KRAS^G12D cells) [µM] | Kd [1] [µM] |
| --- | --- | --- |
| Fc1c(-c2cccc3cccc(Cl)c23)ncc2c(N3CC4CCC(C3)N4)nc(OCC34CCCN3CCC4)nc12 [Compound 6] | < 0.5 | ≤ 0.5 |
| CN(C)CCCn1c(=O)nc(N2CC3CCC(C2)N3)c2cnc(-c3cccc4cccc(Cl)c34)c(F)c21 [Compound 17] | > 5 | > 5 |
| Fc1cc2c(N3C4CCC3CNC4)nc(OCC34CCCN3CCC4)nc2nc1-c1cccc2cccc(Cl)c12 [Compound 9] | > 5 | > 5 |
| C[C@H]1CNCCN1c1nc(OCCN(C)C)c(-c2cccnc2C2CC2)c2nc(-c3ccccc3F)c(F)cc12 [Compound 1] | 0.5 to 5 | > 5 |
| CN(C)CCOc1nc(N2C3CCC2CNC3)c2cc(F)c(-c3ccccc3F)nc2c1-c1cccnc1C1CC1 [Compound 20] | 0.5 to 5 | > 5 |
| CN1CCC[C@H]1Cn1c(=O)nc(N2C[C@H]3CC[C@@H](C2)N3)c2cc(F)c(-c3cccc4cccc(Cl)c34)nc21 [Compound 45] | > 5 | > 5 |
| CN(C)CCOc1cc2nc(-c3ccccc3F)c(F)cc2c(N2C3CCC2CNC3)n1 [Compound 49] | 0.5 to 5 | > 5 |
| Clc1cc2c(N3CC4CCC(C3)N4)nc(OCC34CCCN3CCC4)nc2nc1-c1cccc2ccccc12 [Compound 2] | > 5 | > 5 |
| Oc1cc(-c2nc3cc(OC[C@@]45CCCN4C[C@H](F)C5)nc(N4CC5CCC(C4)N5)c3cc2Cl)c2c(Cl)cccc2c1 [Compound 43] | 0.5 to 5 | > 5 |
| Cc1cccc2cc(O)cc(-c3ncc4c(N5CC6CCC(C5)N6)nc(OC[C@@]56CCCN5C[C@H](F)C6)c(Cl)c4n3)c12 [Compound 58] | 0.5 to 5 | 0.5 to 5 |
| CN1CCC[C@H]1Cn1c(=O)nc(N2CC3CCC(C2)N3)c2cnc(-c3cccc4cccc(Cl)c34)c(F)c21 [Compound 33] | > 5 | > 5 |
| Oc1cc(-c2nc3nc(OCC45CCCN4CCC5)nc(N4CC5CCC(C4)N5)c3cc2Cl)c2ccccc2c1 [Compound 10] | > 5 | > 5 |
| Clc1cc2c(N3CCNCC3)nc(OCC34CCCN3CCC4)nc2nc1-c1cccc2ccccc12 [Compound 3] | > 5 | > 5 |
| CN(C)CCCn1c(=O)nc(N2CC3CCC(C2)N3)c2cc(F)c(-c3cccc4cccc(Cl)c34)nc21 [Compound 19] | > 5 | > 5 |
| CN1CCC[C@H]1Cn1c(=O)nc(N2CC3CCC(C2)N3)c2cnc(-c3cc(O)cc4ccccc34)c(F)c21 [Compound 40] | > 5 | > 5 |
| Fc1ccccc1-c1nc2c(-c3cccnc3C3CC3)c(OCC34CCCN3CCC4)nc(N3CC4CCC(C3)N4)c2cc1F [Compound 28] | 0.5 to 5 | > 5 |
| C[C@H]1CNCCN1c1nc(OCCN(C)C)c(-c2cccnc2C2CC2)c2nc(-c3cccc4ccccc34)c(F)cc12 [Compound 29] | 0.5 to 5 | > 5 |
| CN(C)CCCOc1cc2nc(-c3cccc4ccccc34)ncc2c(N2CC3CCC(C2)N3)n1 [Compound 23] | 0.5 to 5 | > 5 |
| CCN1CCC(c2nc(OCC34CCCN3CCC4)nc3c(F)c(-c4cc(O)cc5cccc(Cl)c45)ncc23)CC1 [Compound 56] | 0.5 to 5 | > 5 |
| Fc1cc2c(N3CC4CCC(C3)N4)nc(OCC34CCCN3CCC4)nc2nc1-c1cccc2cccc(Cl)c12 [Compound 7] | > 5 | > 5 |
| Fc1cc2c(N3CC4CCC(C3)N4)nc(OCC34CCCN3CCC4)cc2nc1-c1cccc2ccccc12 [Compound 14] | 0.5 to 5 | > 5 |
| Fc1c(-c2cccc3cccc(Cl)c23)ncc2c(N3CC4CCC(C3)N4)nc(OC[C@@]34CCCN3C[C@H](F)C4)nc12 [Compound 30] | < 0.5 | ≤ 0.5 |
| CN(C)CCOc1nc(N2CCNCC2)c2cc(F)c(-c3ccccc3F)nc2c1-c1cccnc1C1CC1 [Compound 24] | 0.5 to 5 | > 5 |
| Nc1cccc(F)c1-c1ncc2c(N3CC4CCC(C3)N4)nc(OCC34CCCN3CCC4)cc2n1 [Compound 26] | > 5 | > 5 |

Now from value to compound:

| GI50 (Ba/F3_KRAS^G12D cells) [µM] | Kd [1] [µM] | Compound |
| --- | --- | --- |
| < 0.5 | ≤ 0.5 | Oc1cc(-c2nc(Cl)c3c(N4CC5CCC(C4)N5)nc(OC[C@@]45CCCN4C[C@H](F)C5)nc3c2F)c2c(Cl)cccc2c1 [Compound 114] |
| > 5 | > 5 | Oc1cc(-c2ncc3c(N4CC5(CCCN5)C4)nc(OC[C@@]45CCCN4C[C@H](F)C5)nc3c2F)c2c(Cl)cccc2c1 [Compound 97] |
| > 5 | 0.5 to 5 | CN1CCC[C@H]1COc1nc(N2CC3CCC(C2)N3)c2[nH]c(=O)c(-c3cc(O)cc4ccccc34)cc2n1 [Compound 92] |
| < 0.5 | ≤ 0.5 | C#Cc1c(F)ccc2cc(O)cc(-c3nc(Cl)c4c(N5CC6CCC(C5)N6)nc(OC[C@@H]5CCCN5C)nc4c3F)c12 [Compound 159] |
| < 0.5 | ≤ 0.5 | CCc1c(F)ccc2cc(O)cc(-c3nc(Cl)c4c(N5CC6CCC(C5)N6)nc(OC[C@@]56CCCN5C[C@H](F)C6)nc4c3F)c12 [Compound 138] |
| < 0.5 | ≤ 0.5 | CCc1cccc2c(F)c(O)cc(-c3nc(C)c4c(N5CC6CCC(C5)N6)nc(OC[C@@]56CCCN5C[C@H](F)C6)nc4c3F)c12 [Compound 124] |
| > 5 | 0.5 to 5 | Cc1nc(-c2ccc(F)c3sc(N)nc23)c(F)c2nc(OC[C@@]34CCCN3C[C@H](F)C4)nc(N3CC4CCC(C3)N4)c12 [Compound 87] |
| < 0.5 | ≤ 0.5 | C#Cc1c(F)ccc2cc(O)cc(-c3nc(C)c4c(N5CC6CCC(C5)N6)nc(OC[C@@]56CCCN5C[C@H](F)C6)nc4c3F)c12 [Compound 128] |
| > 5 | > 5 | O=c1c2nc(OCC34CCCN3CCC4)nc(N3CC4CCC(C3)N4)c2ccn1-c1cccc2ccccc12 [Compound 108] |
| < 0.5 | ≤ 0.5 | CCOc1nc(-c2cc(O)cc3ccc(F)c(Cl)c23)c(F)c2nc(OC[C@@]34CCCN3C[C@H](F)C4)nc(N3CC4CCC(C3)N4)c12 [Compound 173] |
| < 0.5 | ≤ 0.5 | C#Cc1c(F)ccc2cc(O)cc(-c3nc(OCC)c4c(N5CC6CCC(C5)N6)nc(OC[C@@]56CCCN5C[C@H](F)C6)nc4c3F)c12 [Compound 141] |
| < 0.5 | ≤ 0.5 | C#Cc1c(F)ccc2cc(O)cc(-c3nc(OC)c4c(N5CC6CCC(C5)N6)nc(OC[C@@]56CCCN5C[C@H](F)C6)nc4c3F)c12 [Compound 135] |
| 0.5 to 5 | > 5 | c1ccc2c(-c3ncc4c(N5CC6CCC(C5)N6)cc(OCC56CCCN5CCC6)nc4n3)cccc2c1 [Compound 66] |
| < 0.5 | ≤ 0.5 | Oc1cc(-c2nc(Cl)c3c(N4CC5CCC(C4)N5)nc(OC[C@@]45CCCN4C[C@H](F)C5)nc3c2F)c2ccccc2c1 [Compound 95] |
| 0.5 to 5 | 0.5 to 5 | Cc1nc(-c2cc(O)cc3cccc(Cl)c23)c(F)c2nc(OC[C@@]34CCCN3C[C@H](F)C4)nc(N3CC4CCC(C3)N4C)c12 [Compound 90] |
| < 0.5 | ≤ 0.5 | CCOc1c(F)ccc2cc(O)cc(-c3nc(OC)c4c(N5CC6CCC(C5)N6)nc(OC[C@@]56CCCN5C[C@H](F)C6)nc4c3F)c12 [Compound 148] |
| 0.5 to 5 | ≤ 0.5 | CCc1cccc2cc(O)cc(-c3cc4nc(OC[C@@]56CCCN5C[C@H](F)C6)nc(N5CC6CCC(C5)N6)c4c(C)n3)c12 [Compound 121] |
| 0.5 to 5 | > 5 | O=c1cc2c(N3CC4CCC(C3)N4)nc(OCC34CCCN3CCC4)nc2cn1-c1cccc2ccccc12 [Compound 110] |
| > 5 | > 5 | N#Cc1cc2c(N3CC4CCC(C3)N4)nc(OC[C@@]34CCCN3C[C@H](F)C4)nc2nc1-c1cc(O)cc2ccccc12 [Compound 60] |
| > 5 | 0.5 to 5 | Cc1nc(-c2cc(O)cc3cccc(CCC#N)c23)c(F)c2nc(OC[C@@]34CCCN3C[C@H](F)C4)nc(N3CC4CCC(C3)N4)c12 [Compound 119] |
| < 0.5 | ≤ 0.5 | Oc1cc(-c2nc(Cl)c3c(N4CC5CCC(C4)N5)nc(OC[C@@]45CCCN4C[C@H](F)C5)nc3c2Cl)c2c(Cl)cccc2c1 [Compound 120] |
| 0.5 to 5 | ≤ 0.5 | CCc1cccc2cc(O)cc(-c3nc(O)c4c(N5CC6CCC(C5)N6)nc(OC[C@@]56CCCN5C[C@H](F)C6)nc4c3F)c12 [Compound 133] |
| > 5 | 0.5 to 5 | Cc1cc(N)nc(-c2nc(C)c3c(N4CC5CCC(C4)N5)nc(OC[C@@]45CCCN4C[C@H](F)C5)nc3c2F)c1C(F)(F)F [Compound 105] |
| < 0.5 | ≤ 0.5 | COc1c(F)ccc2cc(O)cc(-c3nc(OC)c4c(N5CC6CCC(C5)N6)nc(OC[C@@]56CCCN5C[C@H](F)C6)nc4c3F)c12 [Compound 147] |
| 0.5 to 5 | > 5 | Cc1nc(-c2ccc(F)c3nc(N)sc23)c(F)c2nc(OC[C@@]34CCCN3C[C@H](F)C4)nc(N3CC4CCC(C3)N4)c12 [Compound 99] |
| > 5 | > 5 | Oc1cc(-c2cc3nc(N4CC5CCC(C4)N5)ccc3c(OC[C@@]34CCCN3C[C@H](F)C4)n2)c2ccccc2c1 [Compound 104] |
| 0.5 to 5 | > 5 | Cc1nc(-c2cccc3cccc(CCC#N)c23)c(F)c2nc(OC[C@@]34CCCN3C[C@H](F)C4)nc(N3CC4CCC(C3)N4)c12 [Compound 123] |
| < 0.5 | ≤ 0.5 | CCc1cccc2cc(O)cc(-c3nc(OC)c4c(N5CC6CCC(C5)N6)nc(OC[C@@]56CCCN5C[C@H](F)C6)nc4c3F)c12 [Compound 125] |

Reference: US20230357233A1, “HETEROARYL COMPOUNDS, PREPARATION METHODS AND USES THEREOF” (INVENTISBIO CO., LTD., priority 2020, published 2023)
